Where two headings read alike, the source gives them in different places.
Experiments:
[1] = system: P. falciparum mutant T111 lines; test: drug susceptibility of T111-selected cyt b mutant lines; type: cell-based, Plasmodium falciparum
Protocol: DNA extractions were performed on clonal parasites using the QIAamp DNA extraction kit (QIAGEN Inc, Valencia, CA) or ZYMO Quick gDNA Miniprep kit (Zymo Research Corp, Irvine, CA). For sequencing of the open reading frame of pfcytb, PCR was performed with genomic DNA using forward and reverse flanking primers for cyt b primer 1: 5’-[…]-3’ and primer 2: 5’-[…]-3’. PCR products were subjected to enzymatic cleanup with ExoSAP-IT (Thermo Fisher Scientific) and sent for Sanger sequencing (Eurofins Genomics, Louisville, KY) with PCR primer 2 paired with an internal forward primer: 5’-[…]-3’ and an internal reverse primer: 5’-[…]-3’. Sequences were assembled using 4Peaks software (Nucleobytes, Amsterdam, Netherlands) and aligned with Clustal Omega (EMBL-EBI). For sequencing of the open reading frame of pfdhodh, PCR was performed with genomic DNA using forward primer: 5’-[…]-3’ and reverse primer: 5’-[…]-3’. PCR products were prepared for Sanger sequencing and analyzed as described above, except using two forward primers: 5’-[…]-3’ and 5’-[…]-3’ and with two reverse primers: 5’-[…]-3’ and 5’-[…]-3’.
(§1) Drug susceptibility assays against P. falciparum strains were performed using a SYBR Green based assay. D6 and Dd2 were obtained from MR4. Tm90-C2B was obtained from WRAIR. Dd2-D1^I22L and ELQ-300 were obtained from VAPORHCS. D10yDHODH was obtained as a courtesy from Dr. Akhil Vaidya at Drexel University. P. yoelii ATV^r and ELQ-300^r clones were obtained from VAPORHCS.

[2] = system: P. falciparum K13 mutant parasites SP045 and SP060; test: Growth, Resistance, and Recovery Assay (GRRA), ring-stage survival dose-response; type: cell-based, Plasmodium falciparum; conditions: Plasmodium falciparum
Protocol: These isolates carry the validated R561H Kelch 13 propeller domain mutation associated with delayed parasite clearance in East Africa[24],[25]. Using the 6-hour GRRA[23], all strains were thawed, frozen, and cultured under standard conditions at 5% hematocrit. Samples parasitemia was measured by flow cytometry. Parasite cultures that were predominantly segmented schizonts were synchronized using a single Percoll layer method. Cultures that met quality control requirements of ≥70% early ring stage and ≥1% parasitemia were adjusted to 0.25% parasitemia at 2% hematocrit. […] The GRRA50 implements 11 RSA experiments to generate a dose-response curve for each parasite line per drug. Master mixes of samples were aliquoted into 2 technical replicates of 275 µL each in 96 well plates (2 treated each condition, 2 untreated). At 6 h post-exposure, 200 µL of media was removed from the wells and replaced with 200 µL of incomplete media and spun for 3 min at 800 g to rinse. The rinse was repeated a total of 3 times, after which 200 µL complete media was added back to the wells. At 120 h post-treatment, thin microscopy smears were made using 2 µL of culture for each sample and 20 µL of culture was transferred to PCR strips and stored at −80 °C until qPCR quantification. A standard curve of known parasitemia was generated using the NF54 parasite line for each qPCR quantification for conversion from Cycle threshold (Ct) to parasitemia and comparison between qPCR experiments. Replicate viability was calculated according to the GRRA method. Each individual reaction mixture and cycling conditions were set to previously used methods. Ct was calculated using AB1 SDA 2.4.1. software. […] We find that commonly reported thresholds (cutoffs) for resistance (e.g., 1% survival in traditional RSA) may not be broadly applicable, especially with lower thresholds subject to potential artifacts due to markedly low survival rates of ART-sensitive and low-level ART-resistant parasites. Regular RSA relies on a single drug concentration, 700 nM. To gain a more fine-scale quantification to compare drug susceptibilities with relevance to therapeutic success and failure, we developed the GRRA50 to generate full dose-response curves for precise quantitative comparisons.

[3] = cytotoxicity against HepG2 cells; type: cell-based; conditions: human, HepG2 cells; read-out: inhibition IC50 vs HepG2
Protocol: Cytotoxicity was evaluated in human HepG2 liver cells, using an MTT assay. Briefly, HepG2 cells were cultured in complete Dulbecco’s modified Eagle’s medium (DMEM; Gibco-Invitrogen, No. 11995-065) prepared by supplementing DMEM with 10% heat inactivated FBS (Gibco-Invitrogen, No. 16000-036), 100 units/mL penicillin, and 100 µg/mL streptomycin. Cell viability was assessed using trypan blue. Ninety-six-well plates were seeded with 2 × 10^4 cells per well and incubated at 37 °C overnight in a humidified 5% CO2 atmosphere. Test compound plates were prepared with an INTEGRA assist plus station and 96-well plates containing 11 duplicate 2-fold serial dilutions of test compound suspended in DMSO. The diluted test compound was then added to the corresponding well preseeded with HepG2 cells. […] After incubation, 20 µL of a 0.1 mg/mL solution of resazurin diluted in PBS was added to each well, and all plates were subsequently incubated for 3–4 h in an incubator. Absorbance was determined with the Molecular Devices SpectraMax plate reader. Three independent experiments, each in duplicate, were performed, and the IC50 values were determined using GraphPad Prism software (Version 10) using the non-linear regression equation (sigmoidal dose-response, variable slope).

[4] = system: P. falciparum D6, Dd2, Tm90-C2B, Dd2-D1^I22L, D10yDHODH; test: microbe, parasite or virus in culture; type: cell-based, Plasmodium falciparum; conditions: read-out: in vitro IC50 vs P. falciparum
Protocol: as §1

[5] = system: P. yoelii wild type, ATV^r and ELQ-300^r clones; test: 4-day suppression model with ATV- and ELQ-300-resistant clones; type: in vivo, P. yoelii in CF1 mice; conditions: (95% CI)
Excerpt: Animals were housed at the VAPORHCS in Thoren Maxi-Miser microisolator cages (78 sq. in. floor space) with a maximum density of five females or four males per cage. Cages were maintained on a 12-h light/dark cycle and provided with autoclaved nesting materials (nestlets) for environmental enrichment. All mice had ad libitum access to food and water. Four- to five-week-old female and male outbred CF1 mice (Charles River Laboratories, Raleigh, NC, USA) were randomly assigned to treatment and control groups using a simple randomization procedure (e.g., computer-generated random numbers) to ensure balanced distribution of baseline body weights and starting parasitemia levels across all cohorts. Groups of four mice (n = 4, mean body weight of each group was ~30 g) were infected intravenously with 3.5 × 10^4 P. yoelii (Kenya strain, MRA-428) from a donor animal. Drug administration commenced the day after the animals were inoculated (Day 1). The test drug or the drug combination was dissolved in PEG-400 and administered by oral gavage once daily for 4 successive days in the 4-day suppression model, but only once on Day 1 in the single-dose cure model. Blood was collected via the tail vein with the aid of a syringe needle on Day 5 and then at weekly intervals through Day 28. Blood films were Giemsa-stained and examined microscopically to determine the level of parasitemia. All mice were observed daily to assess clinical signs. Animals with observable parasitemia following the experiments were euthanized; animals cleared of parasitemia from their bloodstream were observed daily with assessment of parasitemia performed weekly until Day 28, at which point, the animal(s) were scored as cured of the infection and then humanely euthanized. All treated mice with a negative smear on Day 28 were considered cured (100% protection).
as §1

[6] = Dd2-A^131S-140I-259L-264L, read-out: inhibition IC50 vs P. falciparum
[7] = Dd2-A^131S-140I-259L, read-out: inhibition IC50 vs P. falciparum
[8] = Dd2-B^87V-131S-140I-259L, read-out: inhibition IC50 vs P. falciparum
[9] = Dd2-B^131S-140I-259L-264L, read-out: inhibition IC50 vs P. falciparum
[10] = Dd2-C0^119L-131S-259L (pfdhodh mutation), read-out: inhibition IC50 vs P. falciparum
[11] = Dd2-C1^131S-140I-259L (pfdhodh mutation), read-out: inhibition IC50 vs P. falciparum
[12] = Dd2, read-out: inhibition IC50 vs P. falciparum
[13] = Dd2^131S-259L, read-out: inhibition IC50 vs P. falciparum
[14] = Dd2^131S, read-out: inhibition IC50 vs P. falciparum
[15] = Dd2^259L, read-out: inhibition IC50 vs P. falciparum
[16] = Plasmodium falciparum, DD2, Supplementary Table 4, Dd2
[17] = Plasmodium falciparum, DD2, Supplementary Table 4, Dd2-A131S-140I-259L-264L
[18] = Plasmodium falciparum, DD2, Supplementary Table 4, Dd2-B131S-140I-259L-264L
[19] = Plasmodium falciparum, DD2, Supplementary Table 4, Dd2-D0119L-131S-259L (pfdhodh mutation)
[20] = Plasmodium falciparum, DD2, Supplementary Table 4, Dd2-D1131S-140I-259L (pfdhodh mutation)

Compound | IC50 [1, 6] [nM] | IC50 [1, 7] [nM] | IC50 [1, 8] [nM] | IC50 [1, 9] [nM] | IC50 [1, 10] [nM] | IC50 [1, 11] [nM] | IC50 [1, 12] [nM] | IC50 [1, 13] [nM] | IC50 [1, 14] [nM] | IC50 [1, 15] [nM] | IC50 [1, 16] [nM] | IC50 [1, 17] [nM] | IC50 [1, 18] [nM] | IC50 [1, 19] [nM] | IC50 [1, 20] [nM] | further results
CO/C(=C/C(N)=O)[C@H](C)[C@H](/C=C/c1csc(-c2csc([C@@H](C)/C=C/C=C/C(C)C)n2)n1)OC [MYX, myxothiazol] | 16 ± 4.1 | 192 ± 11 | 373 ± 11 | 34 ± 3.3 | 1540 ± 110 | 723 ± 141 | 24 ± 3.4 | 975 ± 139 | 383 ± 38 | 64 ± 13 |  |  |  |  |  | 
Cc1cc(Nc2ccc(S(F)(F)(F)(F)F)cc2)n2nc(C(C)(F)F)nc2n1 [DSM265] |  |  |  |  |  |  |  |  |  |  |  |  |  |  |  | IC50 ([1]; Plasmodium falciparum, DD2, read-out: inhibition IC50 vs P. falciparum, Dd2): 3.2 ± 0.3 nM; IC50 ([1]; Plasmodium falciparum, DD2, read-out: inhibition IC50 vs P. falciparum, Dd2-A^131S-140I-259L): 3.2 ± 0.52 nM; IC50 ([1]; Plasmodium falciparum, DD2, read-out: inhibition IC50 vs P. falciparum, Dd2-A^131S-140I-259L-264L): 1.2 ± 0.075 nM; IC50 ([1]; Plasmodium falciparum, DD2, read-out: inhibition IC50 vs P. falciparum, Dd2-B^87V-131S-140I-259L): 3.5 ± 0.37 nM; IC50 ([1]; Plasmodium falciparum, DD2, read-out: inhibition IC50 vs P. falciparum, Dd2-B^131S-140I-259L-264L): 2.8 ± 0.3 nM; IC50 ([1]; Plasmodium falciparum, DD2, read-out: inhibition IC50 vs P. falciparum, Dd2-C0^119L-131S-259L (pfdhodh mutation)): 795 ± 235 nM; IC50 ([1]; Plasmodium falciparum, DD2, read-out: inhibition IC50 vs P. falciparum, Dd2-C1^131S-140I-259L (pfdhodh mutation)): 563 ± 203 nM; IC50 ([1]; Plasmodium falciparum, DD2, read-out: inhibition IC50 vs P. falciparum, Dd2^131S): 1.9 ± 0.22 nM; IC50 ([1]; Plasmodium falciparum, DD2, read-out: inhibition IC50 vs P. falciparum, Dd2^131S-259L): 2.8 ± 1.2 nM; IC50 ([1]; Plasmodium falciparum, DD2, read-out: inhibition IC50 vs P. falciparum, Dd2^259L): 3.3 ± 1 nM
C[C@H]1[C@@H](O)O[C@@H]2O[C@@]3(C)CC[C@H]4[C@H](C)CC[C@@H]1[C@@]24OO3 [DHA, dihydroartemisinin] |  |  |  |  |  |  |  |  |  |  | 1.7 ± 0.14 | 2.3 ± 0.25 | 2.3 ± 0.18 | 2.2 ± 0.18 | 2.4 ± 0.2 | IC50 ([2]; read-out: GRRA50, SP045 (K13 V555A, ART-S)): 7.7 nM; IC50 ([2]; read-out: GRRA50, SP060 (K13 R561H, ART-R)): 25 nM
OC(c1cc(C(F)(F)F)nc2c(C(F)(F)F)cccc12)C1CCCCN1 (stereo not drawn) [mefloquine] |  |  |  |  |  |  |  |  |  |  |  |  |  |  |  | IC50 at 24 h [3]: 4.94 µM
ELQ-400 | 80 ± 15 | 133 ± 17 | 177 ± 3.1 | 126 ± 32 | 255 ± 62 | 501 ± 101 | 4 ± 0.45 | 28 ± 13 | 4.2 ± 0.41 | 24 ± 6.7 |  |  |  |  |  | 
CCCCN(CCCC)CC(O)c1cc(Cl)cc2c1-c1ccc(Cl)cc1/C2=C/c1ccc(Cl)cc1 (stereo not drawn) [LUM, lumefantrine] |  |  |  |  |  |  |  |  |  |  | 1.2 ± 0.098 | 1.7 ± 0.086 | 1.7 ± 0.36 | 1.5 ± 0.11 | 2.4 ± 0.11 | 
Clc1ccc2c(N3CCN(CCCN4CCN(c5ccnc6cc(Cl)ccc56)CC4)CC3)ccnc2c1 [PIP, piperaquine] |  |  |  |  |  |  |  |  |  |  | 7.4 ± 0.57 | 9.9 ± 0.65 | 12 ± 2.3 | 11 ± 1.2 | 9.1 ± 1.7 | 
COc1cc2[nH]c(C)c(-c3ccc(Oc4ccc(OC(F)(F)F)cc4)cc3)c(=O)c2cc1Cl [ELQ-300] | 35 ± 3.2 | 52 ± 5.5 | 67 ± 4.6 | 25 ± 2.7 | 221 ± 50 | 225 ± 73 | 38 ± 5 | 26 ± 5.2 | 20 ± 5.8 | 23 ± 4.3 |  |  |  |  |  | IC50 ([4]; D6): 3.5 ± 0.23 nM; IC50 ([4]; D10yDHODH): > 2500 nM; IC50 ([4]; Dd2-D1^I22L (ELQ-300-resistant)): 245 ± 27 nM; IC50 ([4]; Dd2): 3.1 ± 0.15 nM; IC50 ([4]; Tm90-C2B (cyt b Y268S, ATV-resistant)): 1.3 ± 0.084 nM; ED50 ([5]; P. yoelii ATVrY268S): 0.040 (0.036–0.044) mg/kg/day; ED50 ([5]; P. yoelii ELQ-300rI22L): 1.27 (0.97–1.67) mg/kg/day; ED50 ([5]; P. yoelii wild type): 0.031 (0.029–0.033) mg/kg/day

Reference: PMC13168289, “Potent acridone antimalarial against all three life stages of Plasmodium” (Nature Communications, 2026)
